According to ChEMBL document CHEMBL1201862, “PubChem BioAssay data set” (2004):
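These data come from cells grown in 96-well plates and exposed to compound for 48 hours at five concentrations. GI50 = concentration required for 50% inhibition of growth.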 The source made the active and inactive calls. No stated cut-off is given here; in the data, active = GI50 up to about 1.1 µM and inactive = higher. Peptide text beside a SMILES is read from it. * marks the point of attachment. Boc = CC(C)(C)OC(=O)*

How the values were obtained:
Test in all cases: DTP human tumour cell line panel, 48 h
MDA-MB-231 = tested on: MDA-MB-231
OVCAR-8 = tested on: OVCAR-8
MOLT-4 = tested on: MOLT-4
COLO 205 = tested on: COLO 205
A498 = tested on: A498
SF-539 = tested on: SF-539
IGROV-1 = tested on: IGROV-1
RPMI-8226 = tested on: RPMI-8226
MDA-MB-435 = tested on: MDA-MB-435
UACC-62 = tested on: UACC-62
T47D = tested on: T47D
ACHN = tested on: ACHN
HCC 2998 = tested on: HCC 2998
SNB-19 = tested on: SNB-19
UO-31 = tested on: UO-31
EKVX = tested on: EKVX
DU-145 = tested on: DU-145
NCI-H23 = tested on: NCI-H23
SN12C = tested on: SN12C
CAKI-1 = tested on: CAKI-1

Structure (SMILES) | GI50 (MDA-MB-231) | GI50 (OVCAR-8) | GI50 (MOLT-4) | GI50 (COLO 205) | GI50 (A498) | GI50 (SF-539) | GI50 (IGROV-1) | GI50 (RPMI-8226) | GI50 (MDA-MB-435) | GI50 (UACC-62) | GI50 (T47D) | GI50 (ACHN) | GI50 (HCC 2998) | GI50 (SNB-19) | GI50 (UO-31) | GI50 (EKVX) | GI50 (DU-145) | GI50 (NCI-H23) | GI50 (SN12C) | GI50 (CAKI-1)
CC(=O)ON(C(C)=O)c1ccc(-c2nc3ccccc3s2)cc1 | 25 µM (inactive) | 21.2 µM (inactive) | 13.3 µM (inactive) | 18.7 µM (inactive) | 0.315 µM (active) | 15.3 µM (inactive) | 0.791 µM (active) | 18.3 µM (inactive) | 26.9 µM (inactive) | 20.9 µM (inactive) | 17.4 µM (inactive) | 19.4 µM (inactive) | 17.4 µM (inactive) | 34.7 µM (inactive) | 14.6 µM (inactive) | 13.1 µM (inactive) | 26.2 µM (inactive) | 26 µM (inactive) | 40.7 µM (inactive) | –
CC1=[N+]([O-])C(C)(C)N(O)C1(C)C | > 100 µM (inactive) | > 100 µM (inactive) | > 100 µM (inactive) | > 100 µM (inactive) | > 100 µM (inactive) | > 100 µM (inactive) | > 100 µM (inactive) | > 100 µM (inactive) | > 100 µM (inactive) | > 100 µM (inactive) | > 100 µM (inactive) | > 100 µM (inactive) | > 100 µM (inactive) | > 100 µM (inactive) | > 100 µM (inactive) | > 100 µM (inactive) | > 100 µM (inactive) | > 100 µM (inactive) | > 100 µM (inactive) | –
CCOP(=O)(OCC)C(NC(=O)C(C(F)(F)F)C(F)(F)F)c1ccccc1 (stereo unspecified) | > 100 µM (inactive) | > 100 µM (inactive) | 67.3 µM (inactive) | > 100 µM (inactive) | – | > 100 µM (inactive) | > 100 µM (inactive) | 21.7 µM (inactive) | > 100 µM (inactive) | > 100 µM (inactive) | 84.1 µM (inactive) | > 100 µM (inactive) | > 100 µM (inactive) | > 100 µM (inactive) | 49.9 µM (inactive) | > 100 µM (inactive) | > 100 µM (inactive) | > 100 µM (inactive) | > 100 µM (inactive) | > 100 µM (inactive)
N=c1oc2c(Cl)cc(Cl)cc2cc1C(=O)Nc1cccc2ccccc12 | 3.78 µM (inactive) | 3.44 µM (inactive) | 7.48 µM (inactive) | 7.57 µM (inactive) | 7.62 µM (inactive) | – | 5.32 µM (inactive) | 10 µM (inactive) | 27 µM (inactive) | 40.6 µM (inactive) | 5.2 µM (inactive) | 3.52 µM (inactive) | 6.93 µM (inactive) | 19.5 µM (inactive) | 10.2 µM (inactive) | 8.93 µM (inactive) | > 89.9 µM (inactive) | 16.5 µM (inactive) | 3.58 µM (inactive) | 10.6 µM (inactive)
CC(=O)N1N=C(c2ccccc2Nc2ccccc2C2=NN(C(C)=O)C(c3ccccc3)O2)OC1c1ccccc1 (stereo unspecified) | > 100 µM (inactive) | 71.6 µM (inactive) | 4.76 µM (inactive) | 18.6 µM (inactive) | – | – | > 100 µM (inactive) | 25.3 µM (inactive) | 14.7 µM (inactive) | 35 µM (inactive) | > 100 µM (inactive) | 86.5 µM (inactive) | > 100 µM (inactive) | > 100 µM (inactive) | 48.5 µM (inactive) | 45.4 µM (inactive) | > 100 µM (inactive) | 60.7 µM (inactive) | > 100 µM (inactive) | –
CN1CCCCC1CCN1CCCCC1 (stereo unspecified) | > 100 µM (inactive) | > 100 µM (inactive) | > 100 µM (inactive) | 56.4 µM (inactive) | > 100 µM (inactive) | – | > 100 µM (inactive) | > 100 µM (inactive) | > 100 µM (inactive) | > 100 µM (inactive) | > 100 µM (inactive) | > 100 µM (inactive) | > 100 µM (inactive) | > 100 µM (inactive) | > 100 µM (inactive) | > 100 µM (inactive) | > 100 µM (inactive) | > 100 µM (inactive) | > 100 µM (inactive) | > 100 µM (inactive)
COc1ccc(N2C(=O)C3c4[nH]c5cc(Cl)ccc5c4C4CCC(C(C)(C)C)CC4C3C2=O)cc1 (stereo unspecified) | > 100 µM (inactive) | > 100 µM (inactive) | 15.6 µM (inactive) | > 100 µM (inactive) | – | 96.8 µM (inactive) | > 100 µM (inactive) | 53.2 µM (inactive) | > 100 µM (inactive) | > 100 µM (inactive) | 66.4 µM (inactive) | 61.1 µM (inactive) | 44 µM (inactive) | > 100 µM (inactive) | 70.5 µM (inactive) | 59.2 µM (inactive) | > 100 µM (inactive) | 93.3 µM (inactive) | 64.9 µM (inactive) | –
C#CCCCC(=O)N(C(=O)C[S+]([O-])CC)c1ccccc1 (stereo unspecified) | > 100 µM (inactive) | > 100 µM (inactive) | > 100 µM (inactive) | > 100 µM (inactive) | – | > 100 µM (inactive) | > 100 µM (inactive) | – | > 100 µM (inactive) | > 100 µM (inactive) | > 100 µM (inactive) | > 100 µM (inactive) | > 100 µM (inactive) | > 100 µM (inactive) | > 100 µM (inactive) | > 100 µM (inactive) | > 100 µM (inactive) | > 100 µM (inactive) | > 100 µM (inactive) | > 100 µM (inactive)
Cn1c(-c2ccccc2)cc2c3ccsc3c3ccsc3c21 | > 100 µM (inactive) | > 100 µM (inactive) | 92.7 µM (inactive) | > 100 µM (inactive) | > 100 µM (inactive) | > 100 µM (inactive) | > 100 µM (inactive) | > 100 µM (inactive) | > 100 µM (inactive) | > 100 µM (inactive) | 6.03 µM (inactive) | > 100 µM (inactive) | > 100 µM (inactive) | > 100 µM (inactive) | > 100 µM (inactive) | – | > 100 µM (inactive) | > 100 µM (inactive) | > 100 µM (inactive) | > 100 µM (inactive)
COC(=O)C1=Nc2c(C)nn(-c3ccccc3)c2N=C(c2ccc([N+](=O)[O-])cc2)C1 | > 10 µM (inactive) | > 10 µM (inactive) | > 10 µM (inactive) | > 10 µM (inactive) | – | > 10 µM (inactive) | > 10 µM (inactive) | > 10 µM (inactive) | > 10 µM (inactive) | > 10 µM (inactive) | > 10 µM (inactive) | > 10 µM (inactive) | > 10 µM (inactive) | > 10 µM (inactive) | – | – | > 10 µM (inactive) | > 10 µM (inactive) | > 10 µM (inactive) | > 10 µM (inactive)
COc1ccc2nc3cc(Cl)ccc3c(NCCCN3CCN(CCCNc4ccc5nnn6c7ccccc7c(=O)c4c56)CC3)c2c1 | 6.32 µM (inactive) | 1.42 µM (inactive) | 0.0743 µM (active) | 0.923 µM (active) | > 25 µM (inactive) | 0.21 µM (active) | 0.309 µM (active) | – | 3.25 µM (inactive) | > 25 µM (inactive) | > 25 µM (inactive) | – | 0.303 µM (active) | > 25 µM (inactive) | > 7.5 µM (inactive) | > 17 µM (inactive) | > 25 µM (inactive) | 19.5 µM (inactive) | 1.81 µM (inactive) | > 5.62 µM (inactive)
CC(=O)Nc1ccc(S(=O)(=O)[N-]C2C(=O)c3ccccc3C(=O)C2[n+]2ccccc2)cc1 (stereo unspecified) | 26.6 µM (inactive) | 17.6 µM (inactive) | 17.6 µM (inactive) | > 100 µM (inactive) | – | 18.5 µM (inactive) | 15 µM (inactive) | 17.5 µM (inactive) | 4.09 µM (inactive) | 14.8 µM (inactive) | 47.6 µM (inactive) | 15.8 µM (inactive) | 19.1 µM (inactive) | 14.3 µM (inactive) | 9.06 µM (inactive) | 31 µM (inactive) | > 100 µM (inactive) | 7.64 µM (inactive) | 99.3 µM (inactive) | > 100 µM (inactive)
C[N+](C)(C)CC1CCC(C[N+](C)(C)C)C1=O (stereo unspecified) | 19.6 µM (inactive) | – | – | – | 6.78 µM (inactive) | 7.74 µM (inactive) | 7.94 µM (inactive) | 0.328 µM (active) | 16.3 µM (inactive) | 8.53 µM (inactive) | 3.42 µM (inactive) | 1.82 µM (inactive) | 8.63 µM (inactive) | 17.9 µM (inactive) | 4.34 µM (inactive) | – | 15.5 µM (inactive) | 4.22 µM (inactive) | 4.12 µM (inactive) | 0.668 µM (active)
COC(=O)C(Cc1c[nH]c2ccccc12)NC(=O)C(Cc1c[nH]c2ccccc12)NC(=O)C(Cc1c[nH]c2ccccc12)NC(=O)C(Cc1c[nH]c2ccccc12)NC(=O)C(Cc1c[nH]c2ccccc12)NC(=O)OC(C)(C)C (stereo unspecified) (Boc-WWWWW-OMe; configuration not given here) | > 100 µM (inactive) | > 100 µM (inactive) | 19.6 µM (inactive) | – | – | – | 30 µM (inactive) | 26.2 µM (inactive) | > 100 µM (inactive) | 26.5 µM (inactive) | 10.7 µM (inactive) | 74 µM (inactive) | > 100 µM (inactive) | 39 µM (inactive) | 36.6 µM (inactive) | – | 33.4 µM (inactive) | 58.1 µM (inactive) | > 100 µM (inactive) | > 100 µM (inactive)
Clc1ccccc1C(c1ccccc1)(c1ccccc1)n1ccnc1 [CLOTRIMAZOLE] | 14.9 µM (inactive) | 11 µM (inactive) | 8.95 µM (inactive) | 8.99 µM (inactive) | 20.6 µM (inactive) | – | 7.57 µM (inactive) | 6.32 µM (inactive) | 12.5 µM (inactive) | 13.3 µM (inactive) | 7.85 µM (inactive) | 10 µM (inactive) | 16.5 µM (inactive) | 14.4 µM (inactive) | 6.56 µM (inactive) | 7.93 µM (inactive) | 17.3 µM (inactive) | 13 µM (inactive) | – | 17.4 µM (inactive)
